{"source": "PubChem BioAssay AID1996"}
{"details": "buffer; pH 7.4; 200.0 µM", "units": {"solubility kinetic": "µg/mL"}}
{"molecule": "CCCCN(C(=O)C1=NN(c2ccccc2)C(=O)CC1)c1c(N)n(CCC)c(=O)[nH]c1=O", "solubility kinetic": "> 66.1"}
{"molecule": "O/N=C/c1nc2cc(Cl)ccc2o1", "solubility kinetic": "> 29.5"}
{"molecule": "Cc1cc2ccccn2c1C(=O)Nc1cccc(Cl)c1", "solubility kinetic": "< 0.3"}
{"molecule": "CCOC(=O)/C(C#N)=C/C=C1/C=CC=CN1C", "solubility kinetic": "> 34.5"}
{"molecule": "O=C(COC(=O)COc1ccccc1)NCCC1=CCCCC1", "solubility kinetic": 38.5}
{"molecule": "CCOC(=O)c1ccc2[nH]c3c(c2c1)CCCC3NC=O", "note": "(centres undefined)", "solubility kinetic": "> 42.9"}
{"molecule": "Cc1ccc(NC(=S)NCc2ccccc2)cc1C", "solubility kinetic": 5.1}
{"molecule": "CCc1nc2oc3ccc(C)cc3c(=O)c2cc1C(=O)OC", "solubility kinetic": "< 0.6"}
{"molecule": "Clc1ccc(-c2cc(-c3ccccn3)on2)c(Cl)c1", "solubility kinetic": "< 0.3"}
{"molecule": "CCC(=O)c1ccc(OCC(=O)N2CCN(CC(=O)Nc3ccc(C)cc3)CC2)cc1", "solubility kinetic": "> 63.5"}
{"molecule": "C=CCNC(=O)/C(C#N)=C/c1ccc2c(c1)OCCO2", "solubility kinetic": 7}
{"molecule": "Oc1ccc(Cl)cc1CNc1nccs1", "solubility kinetic": 13.9}
{"molecule": "CC(=O)N1CCN(C(=O)COC(=O)/C=C/c2ccc(C(F)(F)F)cc2)CC1", "solubility kinetic": "> 57.7"}
{"molecule": "O=C(Nc1cccnc1)c1ccc2ccccc2c1O", "solubility kinetic": 36.9}
{"molecule": "O=C(Nc1ccccc1)[C@@H]1CCCN1S(=O)(=O)c1ccc(Cl)cc1", "solubility kinetic": 6.8}
{"molecule": "O=C(O)c1cncc(C#CCC2CCCCC2)c1", "solubility kinetic": 34.8}
{"molecule": "Cl.NC(Cc1ccccc1)c1nc2ccccc2[nH]1", "note": "(centres undefined)", "solubility kinetic": 40.3}
{"molecule": "CC(C)(C)NC(=O)c1cc2c(ccc3ccccc32)oc1=O", "solubility kinetic": 2.5}
{"molecule": "O=c1c2ccccc2[nH]c(=S)n1Cc1ccccc1", "solubility kinetic": "< 0.3"}
{"molecule": "O=C(CCc1ccccc1)Nc1nc2c(F)cc(F)cc2s1", "solubility kinetic": 4}
{"molecule": "O=C(O)c1cccc(NC2=Nc3cccc4cccc2c34)c1", "solubility kinetic": 36.7}
{"molecule": "COc1ccc(CNC(=O)COC(=O)c2ccc(F)c(S(=O)(=O)N3CCOCC3)c2)cc1", "solubility kinetic": 68}
{"molecule": "O=C1CC2(CCN(C(=O)c3ccc([N+](=O)[O-])cc3)CC2)Oc2ccccc21", "solubility kinetic": 3.2}
{"molecule": "CCc1ccc(OCC(=O)OCC(=O)NC2CCCC(C)C2C)cc1", "note": "(centres undefined)", "solubility kinetic": 9.2}
{"molecule": "Cc1cccc(-c2nc3cc([N+](=O)[O-])ccc3o2)c1", "solubility kinetic": "< 0.3"}
{"molecule": "CC(=O)c1cccc(NC(=O)c2cc(-c3ccco3)on2)c1", "solubility kinetic": 2.1}
{"molecule": "COc1ccc(CN(C)CC(=O)NC(=O)NC2CCCCC2)cc1", "solubility kinetic": "> 50"}
{"molecule": "Cc1ccc2[nH]c3c(c2c1)CN(C(=O)CN1CCCCC1)CC3", "solubility kinetic": 41.8}
{"molecule": "Cc1cc(NC(=O)CSc2nc3cc(C)c(C)cc3cc2C)no1", "solubility kinetic": "< 0.2"}
{"molecule": "O=C(CCNC(=O)c1ccc(Cl)cc1)NCc1ccco1", "solubility kinetic": "> 46"}
{"molecule": "O=C(COC(=O)c1ccccc1Oc1ccccc1)NC1CC1", "solubility kinetic": "> 46.7"}
{"molecule": "CNc1ccc(/C=C(\\C#N)C(=O)Nc2ccccn2)cc1[N+](=O)[O-]", "solubility kinetic": 2.8}
{"molecule": "O=C(O)CC1(CC(=O)Nc2ccc3ccccc3n2)CCCCC1", "solubility kinetic": "> 49"}
{"molecule": "COc1cc(SC)ccc1C(=O)Nc1ccc2c(c1)CCC2", "solubility kinetic": 2.2}
{"molecule": "COc1ccccc1-c1nc(=S)c(C(C)=O)c(C)[nH]1", "solubility kinetic": "> 41.2"}
{"molecule": "Cc1oc(S(=O)(=O)N(C)C)cc1C(=O)Nc1ccc(F)cc1", "solubility kinetic": 2.3}
{"molecule": "COc1ccc(C(=O)OCC(=O)c2ccc3c(c2)NC(=O)CO3)cc1OC", "solubility kinetic": 10.8}
{"molecule": "Cc1ccc(/C=C/C(=O)Nc2ccc(S(N)(=O)=O)cc2)o1", "solubility kinetic": "> 46"}
{"molecule": "CC(=O)N1CCN(C(=O)c2cccc(S(=O)(=O)N3c4ccccc4CC3C)c2)CC1", "note": "(centres undefined)", "solubility kinetic": "> 64.1"}
{"molecule": "O=C(CSCc1ccccc1)NCCc1ccc(F)cc1", "solubility kinetic": 41.5}
{"molecule": "Cc1cc(NC(=O)c2cc([N+](=O)[O-])cc([N+](=O)[O-])c2C)no1", "solubility kinetic": 38.9}
{"molecule": "Cc1cc(C)c(OCC(=O)Nc2cc(C(=O)O)cc(C(=O)O)c2)cc1C", "solubility kinetic": "> 53.6"}
{"molecule": "CN(C)C(=O)c1cnc(-c2ccccc2)nc1-c1ccccc1", "solubility kinetic": "> 45.5"}
{"molecule": "COc1ccc(NC(=O)COc2ccc3c(c2)OCO3)cc1", "solubility kinetic": 39.5}
{"molecule": "Cc1[nH]c2ccc(C(=O)NCCCN3CCCCC3)cc2c1C", "solubility kinetic": "> 47"}
{"molecule": "CN1CCN(CC(=O)Nc2nc3c(s2)CCCC3)CC1", "solubility kinetic": "> 44.2"}
{"molecule": "CC(OC(=O)c1ccc(Cl)nc1)C(=O)NC1CCCC1", "note": "(centres undefined)", "solubility kinetic": 24.7}
{"molecule": "CCc1nc(SCc2ccccn2)[nH]c(=O)c1C", "solubility kinetic": "> 39.2"}
{"molecule": "C=CCn1cccc(C(=O)Nc2ccc(Cl)cc2)c1=O", "solubility kinetic": 3.4}
{"molecule": "Cc1cc(NC(=O)CSc2nccn2-c2cccc(F)c2)no1", "solubility kinetic": "> 49.9"}
{"molecule": "O=C(CC1SC(N2CCOCC2)=NC1=O)Nc1ccc(F)cc1", "note": "(centres undefined)", "solubility kinetic": "> 50.6"}
{"molecule": "S=C(Nc1ccccc1Cl)N1CCN(c2ccccn2)CC1", "solubility kinetic": 2.3}
{"molecule": "O=C(Nc1cccc(S(=O)(=O)N2CCCCC2)c1)C1CCCC1", "solubility kinetic": 41.2}
{"molecule": "COc1ccc(NC(=O)c2cc(-c3ccco3)nc3ccccc23)cc1", "solubility kinetic": "< 0.4"}
{"molecule": "Cc1cccc(-c2nc(-c3ccncc3)no2)c1", "solubility kinetic": 3.4}
{"molecule": "O=C(Nc1ccncc1)OCc1ccccc1", "solubility kinetic": "> 34.2"}
{"molecule": "C#CC1(NC(=O)NC(=O)c2c(F)cccc2F)CCCCC1", "solubility kinetic": 0.6}
{"molecule": "Cc1cc(N2CCOCC2)nc(C(C)C)n1", "solubility kinetic": 32.4}
{"molecule": "COc1ccc(CNC(=S)NCc2ccc(F)cc2)cc1OC", "solubility kinetic": "> 50.2"}
{"molecule": "O=C1c2ccccc2NC(c2cccc(O)c2)N1Cc1ccco1", "note": "(centres undefined)", "solubility kinetic": "> 48.1"}
{"molecule": "Cc1cc(C)c(NC(=O)CN2C(=O)NC3(CCc4ccccc43)C2=O)c(Cl)c1", "note": "(centres undefined)", "solubility kinetic": 33.1}
{"molecule": "CC(C)OCCCNC1=C(Cl)C(=O)c2ccccc2C1=O", "solubility kinetic": 35.5}
{"molecule": "COc1ccc(CNC(=O)CSc2nccn(-c3ccc(F)c(F)c3)c2=O)cc1", "solubility kinetic": 12.4}
{"molecule": "C=CCc1cc(/C=C2/NC(=O)N(CC(=O)OC)C2=O)cc(OC)c1O", "solubility kinetic": 11.9}
{"molecule": "COc1ccc(-c2cc(C(=O)Nc3cccc(O)c3)no2)cc1", "solubility kinetic": "< 0.3"}
{"molecule": "O=C(Nc1ccc2c(c1)CCC2)c1cnc(Cl)c(Cl)c1", "solubility kinetic": "< 0.3"}
{"molecule": "CCOc1ncccc1C(=O)OCC(=O)Nc1ccc2c(c1)CCC2", "solubility kinetic": 8.1}
{"molecule": "CCOC(=O)c1csc(N)c1-c1ccc([N+](=O)[O-])cc1", "solubility kinetic": 5.5}
{"molecule": "CCOC(=O)c1ncccc1NC(=O)CC(=O)Nc1cccnc1C(=O)OCC", "solubility kinetic": 58.2}
{"molecule": "COC(=O)C1CN(C(=O)c2cccc(OC(F)F)c2)c2ccccc2O1", "note": "(centres undefined)", "solubility kinetic": "> 54.5"}
{"molecule": "CC(=O)C1C(c2ccccc2)c2c(noc2C)CC1(C)O", "note": "(centres undefined)", "solubility kinetic": "> 42.8"}
{"molecule": "C=CCn1c(NC(=O)c2ccco2)nc2ccccc21", "solubility kinetic": 21.2}
{"molecule": "CC(C)CNC(=O)C(=O)NCC1OCCCN1S(=O)(=O)c1cccs1", "note": "(centres undefined)", "solubility kinetic": "> 58.4"}
{"molecule": "O=C1CCCN=C(Nc2ccc(F)c(Cl)c2)S1", "solubility kinetic": 3.1}
{"molecule": "CCOC(=O)Cc1csc(NC(=O)CN2CCN(c3ccccc3)CC2)n1", "solubility kinetic": 44.6}
{"molecule": "COc1ccc(CCNc2cc(C)nc(N)n2)cc1OC", "solubility kinetic": "> 43.3"}
{"molecule": "CN(c1ccc(C(=O)N2CCCCC2)cc1)S(=O)(=O)c1cccs1", "solubility kinetic": 52.7}
{"molecule": "O=C(COc1ccccc1O)NCCN1CCOCC1", "solubility kinetic": "> 42"}
{"molecule": "Cc1ccc(CNC2CCCCC2)s1.Cl", "solubility kinetic": "> 36.9"}
{"molecule": "Cc1[nH]c2ccccc2c1C(=O)C(=O)N1CCN(C(=O)c2ccco2)CC1", "solubility kinetic": "> 54.8"}
{"molecule": "CC(C)(CCl)C(=O)Nc1ccnc(-c2ccncc2)n1", "solubility kinetic": 6}
{"molecule": "COc1cccc(OC)c1C(=O)NC(=O)Nc1c(F)cc(F)cc1F", "solubility kinetic": 5.4}
{"molecule": "CCc1ccccc1NC(=S)N(CCc1ccncc1)C(C)C", "solubility kinetic": 44}
{"molecule": "Cc1cc(C(=O)N2CCC3(CC2)OCCO3)no1", "solubility kinetic": "> 37.8"}
{"molecule": "c1ccc(CN2CCc3nc4ccccc4cc3C2)cc1", "solubility kinetic": 33.2}
{"molecule": "Cc1ccccc1N1CCN(S(=O)(=O)c2cccs2)CC1", "solubility kinetic": 4}
{"molecule": "S=C1NCN(Cc2ccccc2)CN1", "solubility kinetic": "> 31.1"}
{"molecule": "O=C(CSc1nccc(=O)[nH]1)NCc1ccco1", "solubility kinetic": "> 39.8"}
{"molecule": "Cc1cccc(S(=O)(=O)Nc2cc(Cl)ccc2N2CCOCC2)c1", "solubility kinetic": 3.6}
{"molecule": "O=C(COC(=O)c1ccc(N2CCCC2=O)cc1)c1ccccc1", "solubility kinetic": 3.7}
{"molecule": "O=[N+]([O-])c1cc(-c2ncccn2)c([N+](=O)[O-])s1", "solubility kinetic": 34.8}
{"molecule": "O=C(CN1CCCCC1)n1c2ccccc2c2ccccc21", "solubility kinetic": 24.3}
{"molecule": "CC(=O)Nc1cccc(NC(=O)Nc2cccc3ccccc23)c1", "solubility kinetic": 0.8}
{"molecule": "COc1ccc2c(c1)CC(=O)NC=C2", "solubility kinetic": "> 28.4"}
{"molecule": "FC(F)(F)Oc1ccc(-c2cn3cccnc3n2)cc1", "solubility kinetic": 8.5}
{"molecule": "COc1ccc(S(=O)(=O)N2CCCC2)cc1C(=O)O", "solubility kinetic": "> 42.8"}
{"molecule": "Cc1c(C(=O)NCC(c2ccco2)N2CCCC2)sc2ccccc12", "note": "(centres undefined)", "solubility kinetic": "> 53.2"}
{"molecule": "O=C(c1ccco1)N1CCN(CCOc2ccccc2)CC1", "solubility kinetic": 42.7}
{"molecule": "CN1CCN(/C=C(\\C#N)S(=O)(=O)c2ccc(Cl)cc2)CC1", "solubility kinetic": 44.1}
{"molecule": "O=C(COc1ccccc1)Nc1cc2c3c(c1)CC(=O)N3CCC2", "solubility kinetic": "> 48.4"}
{"molecule": "COc1ccc(NC(=O)c2cccc3ccccc23)cc1", "solubility kinetic": 1.4}
{"molecule": "CC1=[N+](C)N(c2ccccc2)C(=O)C1N=C/C=C/c1ccccc1", "note": "(centres undefined)", "solubility kinetic": "> 47.8"}
{"molecule": "COC(=O)CCCNC(=O)c1ccc2[nH]c(C)c(C)c2c1", "solubility kinetic": "> 43.3"}
{"molecule": "O=C1N(CCCl)c2ccc(Br)cc2C12OCCO2", "solubility kinetic": 48.1}
{"molecule": "O=C(Nc1ccnc(-c2cccnc2)n1)c1cccs1", "solubility kinetic": 2.9}
{"molecule": "Oc1ccc(NCc2ccc(OCc3ccccc3)cc2)cc1", "solubility kinetic": 9.7}
{"molecule": "CC(NC(=O)COC(=O)c1ccc2ccccc2n1)c1ccccc1", "note": "(centres undefined)", "solubility kinetic": 5.3}
{"molecule": "Cc1cc(=O)c(C(=O)O)nn1-c1ccc(Cl)cc1", "solubility kinetic": "> 39.7"}
{"molecule": "CN1CCN(S(=O)(=O)c2ccc(Cl)s2)CC1", "solubility kinetic": "> 42.1"}
{"molecule": "COc1ccccc1CC(=O)Nc1ccon1", "solubility kinetic": "> 34.8"}
{"molecule": "CCN(C(=O)COC(=O)c1cc2c(s1)CCCC2)c1c(N)n(Cc2ccccc2)c(=O)[nH]c1=O", "solubility kinetic": 3.3}
{"molecule": "Cc1cc(NC(=O)NC(C(F)(F)F)C(F)(F)F)no1", "solubility kinetic": 22.7}
{"molecule": "Clc1ccc(OCCNCCc2ccccc2)cc1.O=C(O)C(=O)O", "solubility kinetic": "> 54.9"}
{"molecule": "CN(c1ccccc1)c1ncccn1", "solubility kinetic": 14.2}
{"molecule": "Cc1ccc(-c2c[n+](CC(=O)Nc3ccc(C)cc3C)c3n2CCC3)cc1.[Cl-]", "solubility kinetic": "> 59.4"}
{"molecule": "Cc1ccc(Cn2ccccc2=N)cc1.Cl", "solubility kinetic": "> 35.2"}
{"molecule": "Cc1ccn2cc(-c3cccc([N+](=O)[O-])c3)nc2c1", "solubility kinetic": 5.7}
{"molecule": "O=C(NCCc1ccc(Cl)cc1Cl)c1cccnc1", "solubility kinetic": "> 44.3"}
{"molecule": "COc1ccc(NC(=O)/C(C#N)=C/c2ccc(-c3ccccc3C(=O)O)o2)cc1", "solubility kinetic": "> 58.3"}
